Reference: patent publication US10004703B2, “Treatment of alzheimer's disease using compounds that reduce the activity of non-selective CA++ activated ATP-sensitive cation channels regulated by SUR1 channels” (Biogen Chesapeake LLC, priority 2006, dated 2018)

Assays:
[1] = Exemplary case: type 2 diabetic patient with AD given daily glibenclamide, metformin ceased; assay type: in vivo, human; details: 10 mg per day
Excerpt: The following exemplary descriptions illustrate ways to implement the methods and treatments disclosed herein.
A type 2 diabetic […] presents to their family physician with complaints of forgetfulness and increasing confusion. They are being treated with metformin and diet controls for their Type 2 diabetes. The patient is diagnosed with AD upon referral to a geriatrician and upon clinical, laboratory and imaging investigations.

[2] = Exemplary case: AD patient given daily glibenclamide by monthly depot intramuscular injection, neurological testing; assay type: in vivo, human; details: person with AD; 1.0 mg per day via monthly depot intramuscular injection
Excerpt: The following exemplary descriptions illustrate ways to implement the methods and treatments disclosed herein. […] A diagnosis of AD is made as other causes are ruled out. […] Depot injection is chosen in order to optimize patient compliance.

Compound: COc1ccc(Cl)cc1C(=O)NCCc1ccc(S(=O)(=O)NC(=O)NC2CCCCC2)cc1 [glibenclamide, 5-chloro-N-[2-[4-(cyclohexylcarbamoylsulfamoyl)phenyl]ethyl]-2-methoxy-benzamide]
- Blood glucose measurements and HbA1C levels [1]: stable blood glucose measurements and HbA1C levels
- Episodes of forgetfulness [1]: episodes of forgetfulness are waning
- Neurological testing: AD symptoms [2]: stabilization of symptoms
